In ChEMBL document CHEMBL4118172, “Design and synthesis of 2,6-disubstituted-8-amino imidazo[1,2a]pyridines, a promising privileged structure” (Bioorg Med Chem, 2018):

Key:
[1] = Cytotoxicity against human SH-SY5Y cells after 24 to 72 hrs by MTT assay; type: cell-based
Adenosine receptor A2a = Adenosine receptor A2a (Homo sapiens, UniProt P29274); experiment: Displacement of [3H]-ZM-241385 from human adenosine A2A receptor expressed in HEK293 cell membranes after 1 hr by scintillation counting analysis
Sequence of Adenosine receptor A2a (P29274 whole entry): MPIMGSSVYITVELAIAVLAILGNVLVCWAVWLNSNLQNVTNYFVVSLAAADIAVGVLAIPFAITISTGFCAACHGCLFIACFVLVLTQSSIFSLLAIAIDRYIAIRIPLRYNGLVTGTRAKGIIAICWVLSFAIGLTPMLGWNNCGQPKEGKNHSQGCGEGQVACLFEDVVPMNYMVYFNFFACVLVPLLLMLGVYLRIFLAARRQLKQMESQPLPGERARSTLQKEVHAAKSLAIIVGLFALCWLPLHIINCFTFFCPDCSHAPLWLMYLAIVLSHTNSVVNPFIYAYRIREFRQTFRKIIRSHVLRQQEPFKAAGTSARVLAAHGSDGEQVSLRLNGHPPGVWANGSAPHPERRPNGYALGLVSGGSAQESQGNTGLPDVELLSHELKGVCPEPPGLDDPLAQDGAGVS

| Structure (SMILES) | Ki (Adenosine receptor A2a) | CC50 [1] |
| --- | --- | --- |
| COc1ccc(-c2cn3cc(CCc4ccccc4)cc(N)c3n2)cc1OC | > 10 µM | 50.4 µM |
| c1ccc(-c2cn3cc(-c4ccco4)ccc3n2)cc1 | > 10 µM | > 100 µM |
| COc1ccc(-c2cn3cc(C(=O)NCCc4ccc(O)cc4)cc(N)c3n2)cc1OC | > 10 µM | 26.9 µM |
| COc1ccc(-c2cn3cc(C(=O)NCCCN4CCOCC4)cc(N)c3n2)cc1OC | > 10 µM | > 100 µM |
| COCCOc1ccc(N2CCN(CCNC(=O)c3cc(N)c4nc(-c5ccc(OC)c(OC)c5)cn4c3)CC2)cc1 | > 10 µM | 31.8 µM |
| Nc1cc(-c2ccccc2)cn2cc(-c3ccco3)nc12 | > 10 µM | 0.5 µM |
| c1coc(-c2cn3ccccc3n2)c1 | > 10 µM | > 100 µM |
| Nc1cccn2cc(-c3ccco3)nc12 | > 10 µM | > 100 µM |
| COc1ccc(-c2cn3cc(C(=O)NCCCN4CCCCC4)cc(N)c3n2)cc1OC | > 10 µM | 49.6 µM |
| COCCOc1ccc(N2CCN(C(=O)c3cc(N)c4nc(-c5ccc(OC)c(OC)c5)cn4c3)CC2)cc1 | > 10 µM | > 100 µM |
| COc1ccc(-c2cn3cc(C#Cc4ccccc4)cc(N)c3n2)cc1OC | > 10 µM | 66.7 µM |
| Nc1cc(-c2ccco2)cn2cc(-c3ccco3)nc12 | > 10 µM | 2.27 µM |
| c1ccc(-c2ccc3nc(-c4ccco4)cn3c2)cc1 | > 10 µM | 0.42 µM |

The next lines start with results.

| Ki (Adenosine receptor A2a) | Structure (SMILES) | CC50 [1] |
| --- | --- | --- |
| > 10 µM | COc1ccc(-c2cn3cc(C(=O)NCCCN4CCN(C)CC4)cc(N)c3n2)cc1OC | > 100 µM |
| > 10 µM | COc1ccc(-c2cn3cc(C(=O)NCCCN4CCNCC4)cc(N)c3n2)cc1OC | > 100 µM |
| 0.117 µM | COc1ccc(-c2cn3cc(-c4ccco4)cc(N)c3n2)cc1OC | 36.4 µM |
| 0.238 µM | COc1ccc(-c2cn3cc(-c4ccco4)ccc3n2)cc1OC | 30 µM |
| 1.63 µM | c1coc(-c2ccc3nc(-c4ccco4)cn3c2)c1 | 3 µM |
| 0.418 µM | Nc1cc(-c2ccco2)cn2cc(-c3ccccc3)nc12 | 26 µM |
